# Laboratory results: PMC8050080, “Cannabis sativa terpenes are cannabimimetic and selectively enhance cannabinoid activity” (Scientific Reports, 2021)
# Assays:
# [1] = system: male and female CD-1 mice; assay: Tail flick thermal latency test (antinociception); assay type: in vivo; conditions: for tail flick antinociception (efficacy in words): terpenes 50–200 mg/kg i.p. (β-Caryophyllene 100 mg/kg), WIN55,212-2 up to 10 mg/kg, over 2 h
# Protocol: Antinociception was tested using the tail flick thermal latency test. Mice were baselined by gently restraining the animal and lowering the distal portion of the tail into a water bath set to 52 °C or 47 °C where stated, and the latency to flick the tail recorded with a stopwatch, with a 10 s cutoff. Mice were then injected with compounds intraperitoneally (i.p.). Thermal latency was then assessed over a time course of 2 h, or at a single time-point as noted. […] For assays using terpene/WIN55,212-2 co-treatment, WIN55,212-2 was co-administered with terpene in the same solution.
# [2] = system: male and female CD-1 mice; assay: Hypothermia (core temperature, rectal thermometer); assay type: in vivo; conditions: for hypothermia vs baseline: 30 min after i.p. 200 mg/kg terpene or 5.6 mg/kg WIN55,212-2, Fig. S2A
# Protocol: Changes in core temperature were assessed using a lubricated rectal thermometer placed 1.0 cm into the mouse rectum. Temperature was assessed before treatment and 30 min post-treatment.
# [3] = system: male and female CD-1 mice; assay: Catalepsy ring test; assay type: in vivo; conditions: for effect of istradefyllene pretreatment on catalepsy response: 10 mg/kg istradefyllene; for effect of istradefyllene pretreatment on catalepsy response / effect of rimonabant pretreatment on catalepsy response: 200 mg/kg terpene, Fig. 4; for effect of rimonabant pretreatment on catalepsy response: 10 mg/kg rimonabant; for catalepsy vs baseline: 15 min after i.p. 200 mg/kg terpene or 5.6 mg/kg WIN55,212-2, Fig. S2B; for catalepsy of terpene combined with WIN55,212-2: 200 mg/kg terpene + 5.6 mg/kg WIN55,212-2, Fig. 4
# Protocol: Potential induction of catalepsy was assessed using the ring test as described. Mice were baselined, injected with compound, and then assessed with the ring test at 15 min post-injection. Data was represented as the percentage (%) of time in a “cataleptic” immobile state over the 5 min observation period.
# WT CHO cells = assay: ERK phosphorylation (Western) in WT CHO cells; assay type: cell-based; conditions: for ERK phosphorylation in WT CHO cells: 500 μM terpene or 10 μM WIN55,212-2, 5 min, Fig. 7B; for rimonabant sensitivity of ERK activation in WT CHO cells: 500 μM terpene after 10 μM rimonabant, Fig. 7C
# Protocol: WT-CHO cells were obtained from ATCC (#CCL-61). CHO cells stably expressing the human CB1 receptor were obtained from PerkinElmer (#ES-110-C) and utilized for western blots (CB1-CHO-C2) or binding assays (CB1-CHO-C3). HitHunter (CB1-CHO-cAMP) and PathHunter (CB-CHO-βarr2) assays were performed on respective CB1-CHO lines, and were a kind gift from Dr. Robert Laprairie[44]. CHO cells stably expressing cloned CB2 (CB2-CHO) were produced by electroporation with the human CB2 N-3xHA tag cDNA (GeneCopoeia). A stable expressing population was selected for with 500 μg/mL G418. CHO cells stably expressing the human mu opioid receptor were obtained from PerkinElmer (#ES-542-C). All cells were grown on 10 cm dishes in DMEM/F-12 50/50 mix w/ L-glutamine and 15 mM HEPES (Corning) containing 10% heat-inactivated fetal bovine serum, 100 units/mL penicillin, 100 units/mL streptomycin, and 400 μg/mL G418 (CB1-CHO-C2, CB1-CHO-C3, CB2-CHO, MOR-CHO); 800 μg/mL G418 (CB1-CHO-cAMP); 800 μg/mL G418 and 300 μg/mL hygromycin B (CB1-CHO-βarr2). WT CHO were grown as stated above without selection antibiotic. Cells were incubated in a humidified incubator at 37 °C with 5% CO2 and were sub-cultured every 2–3 days.
# Cells were plated in 6-well plates 24 h prior to the start of the experiments. Cells were serum starved for 1 h then treated for 5 min with compound. In antagonist experiments, cells were pretreated for 5 min before agonist treatment for 5 min. Media was then aspirated, cells were placed on ice, washed with ice-cold PBS once, and lysis buffer (20 mM Tris–HCl, pH 7.4, 150 mM NaCl, 2 mM EDTA, 0.1% SDS, 1% Nonidet P-40, 0.25% deoxycholate, 1 mM sodium orthovanadate, 1 mM PMSF, 1 mM sodium fluoride, and a protease inhibitor cocktail (EMD Millipore)), was added. Cells were scraped and collected. Lysates were vortexed then centrifuged at 13 k rpm at 4 °C for 10 min. Lysates were then processed for Western blots or stored at − 80 °C.
# Cell lysate protein was quantified with a modified BCA protein assay using manufacturers protocol (Bio-Rad). Samples (20–30 μg) were ran on precast gels (10% Bis–Tris, Bolt brand, from ThermoFisher). Gels were wet-transferred to nitrocellulose membranes at 30 V for at least 60 min at 4 °C. Blots were blocked with 5% non-fat dry milk in TBS for 30 min, washed 3 × for 5 min with TBS + 0.1% Tween-20 (TBST), and incubated with primary antibody overnight at 4 °C. Primary antibody: pERK and tERK (Cell Signaling) at 1:1000 dilution in 5% BSA in TBST. Blots were then washed 3 × with TBST then incubated with secondary antibodies for 90 min at room temperature. Secondary antibodies: Goat anti-Rabbit 800 W and Goat anti-Mouse 680 diluted at 1:10,000 and 1:20,000 (Licor), respectively, in 5% non-fat milk in TBST. Blots were washed 3X with TBST and 1 × with TBS, then imaged on a Licor Odyssey Fc or Azure Sapphire. Bands were analyzed using Image-J and reported as pERK/tERK normalized to the standard, or simply as pERK/tERK.
# human mu opioid receptor = molecular target: T1, human mu opioid receptor (Homo sapiens, UniProt P35372); assay type: cell-based; conditions: 500 μM terpene or 10 μM morphine, 5 min, Fig. S13A
# T1 construct: host or cells: CHO (MOR-CHO)
# T1 sequence (P35372 whole entry): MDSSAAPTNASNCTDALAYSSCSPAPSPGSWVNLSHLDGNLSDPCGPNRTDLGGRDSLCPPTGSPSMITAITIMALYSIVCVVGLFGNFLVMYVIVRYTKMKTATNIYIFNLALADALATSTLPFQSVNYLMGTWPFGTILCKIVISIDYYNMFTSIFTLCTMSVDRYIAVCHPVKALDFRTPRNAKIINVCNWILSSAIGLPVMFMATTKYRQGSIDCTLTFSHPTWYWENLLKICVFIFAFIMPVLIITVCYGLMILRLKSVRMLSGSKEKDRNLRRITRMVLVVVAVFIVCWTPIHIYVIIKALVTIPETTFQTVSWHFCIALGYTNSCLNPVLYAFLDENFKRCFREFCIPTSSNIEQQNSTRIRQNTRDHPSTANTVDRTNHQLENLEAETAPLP
# Protocol: Cells were plated in 6-well plates 24 h prior to the start of the experiments. Cells were serum starved for 1 h then treated for 5 min with compound. In antagonist experiments, cells were pretreated for 5 min before agonist treatment for 5 min. […] Cells were scraped and collected. Lysates were vortexed then centrifuged at 13 k rpm at 4 °C for 10 min. Lysates were then processed for Western blots or stored at − 80 °C.
# CHO cells were serum starved for 1 hr, then treated with Vehicle, 10 μM morphine, or 500
# μM terpene for 5 min. ERK was quantitated and reported as above. Data expressed as the
# vs. Vehicle group by 1 Way ANOVA with Dunnett’s post hoc test. B) MOR-CHO cells
# serum starved for 1 hr, then pre-treated with Vehicle or 10 μM naloxone for 10 min, then
# treated with Vehicle, 10 μM morphine, or 500 μM terpene for 5 min. ERK quantitated,
# reported, and normalized as in A (n=3 independent experiments). *, **** = p < 0.05,
# 0.0001 vs. terpene-alone group for each set by 1 Way ANOVA with Sidak’s post hoc test
# (set up as pairwise comparisons between terpene and terpene + naloxone for each set). For
# both, representative blots are shown below each graph.
# CB1 = CB1 (Homo sapiens, UniProt P21554); assay: biochemical; assay type: binding; conditions: CB1-CHO membranes, Fig. 8A
# CB1, sequence (P21554 whole entry): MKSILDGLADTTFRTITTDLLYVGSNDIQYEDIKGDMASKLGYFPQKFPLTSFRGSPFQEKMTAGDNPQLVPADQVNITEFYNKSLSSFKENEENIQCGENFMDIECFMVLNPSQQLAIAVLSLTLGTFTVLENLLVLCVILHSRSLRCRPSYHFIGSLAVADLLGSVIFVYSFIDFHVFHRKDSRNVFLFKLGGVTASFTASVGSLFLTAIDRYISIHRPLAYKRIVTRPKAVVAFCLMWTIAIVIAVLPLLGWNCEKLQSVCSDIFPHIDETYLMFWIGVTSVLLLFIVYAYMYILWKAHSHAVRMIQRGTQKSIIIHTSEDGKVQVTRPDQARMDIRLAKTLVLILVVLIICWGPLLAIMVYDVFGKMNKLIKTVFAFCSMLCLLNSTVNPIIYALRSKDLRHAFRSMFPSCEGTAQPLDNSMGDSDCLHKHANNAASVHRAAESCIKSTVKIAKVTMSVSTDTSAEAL
# [4] = system: male and female CD-1 mice; assay: Open field test (hypolocomotion); conditions: for mobile time of terpene combined with WIN55,212-2: 200 mg/kg terpene + 5.6 mg/kg WIN55,212-2, Fig. 5; for locomotor activity vs baseline / distance traveled and mobile time, experiment without baseline recording: 200 mg/kg terpene or 5.6 mg/kg WIN55,212-2 i.p.; for locomotor activity vs baseline: compared to baseline values, Fig. S2C,D, confounded by habituation; for distance traveled and mobile time, experiment without baseline recording: vs Vehicle, Fig. S3A,B
# Protocol: All experiments were performed on male and female CD-1 (a.k.a. ICR) mice obtained from Charles River in age-matched cohorts of 5–6 weeks of age. […] The animals were maintained in an AAALAC-accredited vivarium at the University of Arizona in temperature and humidity-controlled rooms on a 12-h light/dark cycle. Standard chow and water were available ad libitum. […] Mice were randomized to treatment group by randomization of mice to cages upon arrival, and block random assignment of cages to treatment group. The experimenter was blinded to treatment group by the delivery of coded drug vials. The groups were not decoded until all data had been acquired.
# The open field test was used to determine potential hypolocomotive properties induced by terpene and cannabinoid treatment. The open field box was a white box with an open top and black floor. The tracking area was 30 cm × 28 cm. Mice were baselined by placing the mouse in the center of the box and recording from a video camera ~ 1.5 m above for a period of 5 min. Mice were then injected with compound and placed back in the open field box 10–15 min post-injection. In follow-up experiments, mice were not baselined, injected with compound, and placed in the open field box from 10 to 15 min. The total distance traveled and mobile time of mice were analyzed using AnyMaze software.
SMILES,tail flick antinociception (efficacy in words) ([1]; Fig. S1),hypothermia vs baseline [2],effect of istradefyllene pretreatment on catalepsy response [3],effect of rimonabant pretreatment on catalepsy response [3],catalepsy vs baseline [3],ERK phosphorylation in WT CHO cells (WT CHO cells),ERK stimulation in MOR-CHO cells (human mu opioid receptor),"competition for the orthosteric binding site against CP55,940 (CB1)","mobile time of terpene combined with WIN55,212-2 [4]",locomotor activity vs baseline [4],"distance traveled and mobile time, experiment without baseline recording [4]","catalepsy of terpene combined with WIN55,212-2 [3]",rimonabant sensitivity of ERK activation in WT CHO cells (WT CHO cells),also measured
C=CC(C)(O)CCC=C(C)C (centres unmarked) [Linalool],dose-dependent low efficacy,induced significant hypothermia,partially blocked,small but significant reduction,significant increases in cataleptic behavior,did not cause ERK phosphorylation,no response,little to no competition,further decrease in mobile time,significant reductions in locomotor activity,reductions in distance traveled and mobile time,,,"effect of rimonabant pretreatment on tail flick antinociception ([1]; 200 mg/kg terpene i.p. after 10 mg/kg rimonabant, Fig. 2): fully blocked by rimonabant; tail flick, Linalool combined with WIN55,212-2, females ([1]; female mice, 200 mg/kg + 5.6 mg/kg WIN55,212-2, Fig. S8A): a delay in response and no potentiation over Linalool alone; tail flick, Linalool combined with WIN55,212-2, males ([1]; male mice, 200 mg/kg + 5.6 mg/kg WIN55,212-2, Fig. S8A): greater additive effects of combining both that occurred earlier in the time course; hypolocomotion, antagonist reversal, females ([4]; female mice, 200 mg/kg Linalool, Fig. S8B-C): istradefyllene reversal; hypolocomotion, antagonist reversal, males ([4]; male mice, 200 mg/kg Linalool, Fig. S8B-C): rimonabant reversal"
"Cc1c(C(=O)NN2CCCCC2)nn(-c2ccc(Cl)cc2Cl)c1-c1ccc(Cl)cc1 [Rimonabant, reference compound]",,,,,,,,,,,,,,"effect of rimonabant pretreatment on morphine-induced antinociception ([1]; 10 mg/kg rimonabant i.p., 5.6 mg/kg morphine, Fig. S5A,B): no significant effect; effect of rimonabant on baseline thermal latency ([1]; 10 mg/kg rimonabant, water bath 47 °C, 30 min, Fig. S5C): no significant effect"
"CCn1c(=O)c2c(nc(/C=C/c3ccc(OC)c(OC)c3)n2C)n(CC)c1=O [istradefyllene, Istradefyllene, reference compound]",,,,,,,,,,,,,,"effect of istradefyllene alone on temperature ([2]; 10 mg/kg i.p., 30 min, Fig. S6A): small but significant hypothermic; effect of istradefyllene alone on locomotion ([4]; 10 mg/kg i.p., open field after 10 min, Fig. S6B,C): hyperlocomotive effect"
C/C1=C\CC/C(C)=C/CC(C)(C)/C=C/C1 [α-Humulene],,induced significant hypothermia,completely blocked,small but significant reduction,significant increases in cataleptic behavior,activated ERK,produced ERK stimulation,some competition and semi-biphasic properties,further decrease in mobile time,significant reductions in locomotor activity,did not result in significant reductions,additive effects,rimonabant-insensitive,"efficacy in the tail flick assay ([1]; terpene 50–200 mg/kg i.p., dose-dependent, Fig. S1): 40–50%; effect of istradefyllene pretreatment on hypothermia ([2]; 10 mg/kg istradefyllene, 200 mg/kg terpene, Fig. 3): partially reversed; effect of rimonabant pretreatment on hypothermia ([2]; 10 mg/kg rimonabant, 200 mg/kg terpene or 5.6 mg/kg WIN55,212-2, Fig. 3, S4C): partially reverse"
C=C1CCC2CC1C2(C)C (stereo not drawn) [β-Pinene],low efficacy but not in a dose-dependent manner,induced significant hypothermia,completely blocked,no impact,significant increases in cataleptic behavior,activated ERK,produced ERK stimulation,little to no competition,further decrease in mobile time,significant reductions in locomotor activity,reductions in distance traveled and mobile time,additive effects,rimonabant-insensitive,"effect of istradefyllene pretreatment on mobile time ([4]; 10 mg/kg istradefyllene, 200 mg/kg terpene, Fig. 5): significant reversal; effect of istradefyllene pretreatment on distance traveled ([4]; 10 mg/kg istradefyllene, 200 mg/kg terpene, Fig. S7): istradefyllene reversal"
